ChEMBL document CHEMBL6109134, “Discovery of AMG 193, an MTA-Cooperative PRMT5 Inhibitor for the Treatment of MTAP-Deleted Cancers” (J Med Chem, 2025)

How the values were obtained:
[1] = biological target: Protein arginine N-methyltransferase 5 (Homo sapiens) (UniProt O14744); experiment: Binding affinity to PRMT5 (unknown origin) assessed as occupancy in presence of MTA by SPR analysis relative to control
[2] = biological target: T1, Broad substrate specificity ATP-binding cassette transporter ABCG2 (Homo sapiens, UniProt Q9UNQ0); experiment: Effect on BCRP (unknown origin)-mediated transport up to 10 uM
T1 sequence (Q9UNQ0 whole entry): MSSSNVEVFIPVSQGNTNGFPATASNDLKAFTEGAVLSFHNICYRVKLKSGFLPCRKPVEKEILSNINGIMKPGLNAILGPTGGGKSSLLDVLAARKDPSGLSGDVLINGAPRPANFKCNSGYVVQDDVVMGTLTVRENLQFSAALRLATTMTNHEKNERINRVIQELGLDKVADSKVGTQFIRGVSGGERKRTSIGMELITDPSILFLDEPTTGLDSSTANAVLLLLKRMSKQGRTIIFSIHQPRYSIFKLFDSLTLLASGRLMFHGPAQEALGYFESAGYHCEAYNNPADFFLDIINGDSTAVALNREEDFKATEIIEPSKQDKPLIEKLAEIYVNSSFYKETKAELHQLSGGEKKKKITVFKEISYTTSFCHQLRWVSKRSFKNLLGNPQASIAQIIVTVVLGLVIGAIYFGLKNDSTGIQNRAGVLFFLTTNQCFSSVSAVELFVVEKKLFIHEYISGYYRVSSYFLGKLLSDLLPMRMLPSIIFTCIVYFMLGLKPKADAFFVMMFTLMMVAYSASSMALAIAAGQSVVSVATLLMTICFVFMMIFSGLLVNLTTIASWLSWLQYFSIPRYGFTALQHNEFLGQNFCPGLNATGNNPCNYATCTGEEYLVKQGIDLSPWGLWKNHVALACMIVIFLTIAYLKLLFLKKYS

[3] = Protein binding in mouse plasma assessed as unbound fraction by ultracentrifugation; details: plasma
[4] = Protein binding in rat plasma assessed as unbound fraction by ultracentrifugation
[5] = Antitumor activity against MTAP-deleted human U-87 MG cells xenografted in female athymic nude mouse model assessed as tumor growth inhibition at 30 mg/kg, po administered once daily for 14 days and measured 24 hrs post last dose relative to control; format: functional, U-87MG ATCC; details: 360 h, time 15 day, read-out: TGI
[6] = Unbound CSF-to-plasma concentration ratio in female Sprague-Dawley rat at 25 mg/kg, po administered as single dose; format: ADME, organism-based
[7] = test system: HCT-116; experiment: Antitumor activity against MTAP-deleted human HCT-116 cells xenografted in female athymic nude mouse model assessed as tumor growth inhibition at 3 mg/kg, po administered once daily for 14 days relative to control; format: functional; details: HCT-116, 336 h, time 14 day, read-out: TGI
[8] = biological target: Cytochrome P450 2C9 (Homo sapiens, UniProt P11712); experiment: Inhibition of CYP2C9 (unknown origin)
[9] = biological target: Voltage-gated inwardly rectifying potassium channel KCNH2 (Homo sapiens, UniProt Q12809); experiment: Inhibition of human ERG by QPatch clamp method
[10] = test system: HCT-116; experiment: Antitumor activity against MTAP-deleted human HCT-116 cells xenografted in female athymic nude mouse model assessed as tumor growth inhibition at 30 mg/kg, po administered once daily for 14 days relative to control; format: functional; details: HCT-116, 336 h, time 14 day, read-out: TGI
[11] = Metabolic stability in dog liver microsomes assessed as intrinsic clearance; format: ADME, Canis lupus familiaris, Microsome; details: read-out: CLH
[12] = Drug uptake in plasma of athymic nude mouse xenografted with MTAP-deleted human BXPC-3 cells at 10 to 100 mg/kg, po administered once daily for 26 days and measured 24 hrs post last dose by LC-SRM/MS analysis; format: ADME, organism-based; details: in vivo, 648 h, dose 10-100 mg/kg, time 27 day
[13] = Toxicity in athymic nude mouse xenografted with MTAP-deleted human BXPC-3 cells assessed as effect on body weight at 10 to 100 mg/kg, po administered once daily for 26 days; format: organism-based; details: in vivo, 624 h, dose 10-100 mg/kg, time 26 day
[14] = biological target: CYP3A4 (Homo sapiens, UniProt P08684); experiment: in vitro; details: human liver microsomes, probe midazolam
[15] = biological target: Protein arginine N-methyltransferase 5 (Homo sapiens) (UniProt O14744); experiment: In vivo inhibition of PRMT5 in female athymic nude mouse xenografted with MTAP-deleted human U-87 MG cells assessed as decrease in SDMA level in tumor at 100 mg/kg, po administered once daily for 14 days and measured 2 to 8 hrs post last dose by ELISA relative to control; format: functional, organism-based; details: time 338-344 hrs
[16] = Unbound clearance in Beagle dog at 0.5 mg/kg, iv; format: ADME, organism-based, Canis lupus familiaris; details: in vivo
[17] = Unbound clearance in Sprague-Dawley rat at 0.5 mg/kg, iv; format: ADME, organism-based; details: in vivo

Sequence of Protein arginine N-methyltransferase 5 (Homo sapiens) (O14744 whole entry): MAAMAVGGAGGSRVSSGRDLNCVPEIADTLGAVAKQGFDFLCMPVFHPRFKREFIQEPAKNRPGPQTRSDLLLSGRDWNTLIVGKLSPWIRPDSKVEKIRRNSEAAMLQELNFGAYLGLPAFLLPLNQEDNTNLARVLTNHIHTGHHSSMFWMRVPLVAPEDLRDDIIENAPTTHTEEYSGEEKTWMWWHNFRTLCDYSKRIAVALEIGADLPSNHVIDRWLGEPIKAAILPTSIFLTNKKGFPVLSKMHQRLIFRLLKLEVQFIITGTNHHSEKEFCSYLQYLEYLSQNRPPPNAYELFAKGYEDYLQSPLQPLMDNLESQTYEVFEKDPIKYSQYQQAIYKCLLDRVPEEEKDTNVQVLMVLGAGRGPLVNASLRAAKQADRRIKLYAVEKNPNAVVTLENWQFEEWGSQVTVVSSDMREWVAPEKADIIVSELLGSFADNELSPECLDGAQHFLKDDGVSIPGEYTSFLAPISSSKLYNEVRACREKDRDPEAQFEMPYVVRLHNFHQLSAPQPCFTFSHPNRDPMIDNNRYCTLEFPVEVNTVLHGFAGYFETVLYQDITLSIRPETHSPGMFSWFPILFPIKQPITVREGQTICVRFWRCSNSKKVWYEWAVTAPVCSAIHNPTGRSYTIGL
Sequence of Voltage-gated inwardly rectifying potassium channel KCNH2 (Q12809 whole entry): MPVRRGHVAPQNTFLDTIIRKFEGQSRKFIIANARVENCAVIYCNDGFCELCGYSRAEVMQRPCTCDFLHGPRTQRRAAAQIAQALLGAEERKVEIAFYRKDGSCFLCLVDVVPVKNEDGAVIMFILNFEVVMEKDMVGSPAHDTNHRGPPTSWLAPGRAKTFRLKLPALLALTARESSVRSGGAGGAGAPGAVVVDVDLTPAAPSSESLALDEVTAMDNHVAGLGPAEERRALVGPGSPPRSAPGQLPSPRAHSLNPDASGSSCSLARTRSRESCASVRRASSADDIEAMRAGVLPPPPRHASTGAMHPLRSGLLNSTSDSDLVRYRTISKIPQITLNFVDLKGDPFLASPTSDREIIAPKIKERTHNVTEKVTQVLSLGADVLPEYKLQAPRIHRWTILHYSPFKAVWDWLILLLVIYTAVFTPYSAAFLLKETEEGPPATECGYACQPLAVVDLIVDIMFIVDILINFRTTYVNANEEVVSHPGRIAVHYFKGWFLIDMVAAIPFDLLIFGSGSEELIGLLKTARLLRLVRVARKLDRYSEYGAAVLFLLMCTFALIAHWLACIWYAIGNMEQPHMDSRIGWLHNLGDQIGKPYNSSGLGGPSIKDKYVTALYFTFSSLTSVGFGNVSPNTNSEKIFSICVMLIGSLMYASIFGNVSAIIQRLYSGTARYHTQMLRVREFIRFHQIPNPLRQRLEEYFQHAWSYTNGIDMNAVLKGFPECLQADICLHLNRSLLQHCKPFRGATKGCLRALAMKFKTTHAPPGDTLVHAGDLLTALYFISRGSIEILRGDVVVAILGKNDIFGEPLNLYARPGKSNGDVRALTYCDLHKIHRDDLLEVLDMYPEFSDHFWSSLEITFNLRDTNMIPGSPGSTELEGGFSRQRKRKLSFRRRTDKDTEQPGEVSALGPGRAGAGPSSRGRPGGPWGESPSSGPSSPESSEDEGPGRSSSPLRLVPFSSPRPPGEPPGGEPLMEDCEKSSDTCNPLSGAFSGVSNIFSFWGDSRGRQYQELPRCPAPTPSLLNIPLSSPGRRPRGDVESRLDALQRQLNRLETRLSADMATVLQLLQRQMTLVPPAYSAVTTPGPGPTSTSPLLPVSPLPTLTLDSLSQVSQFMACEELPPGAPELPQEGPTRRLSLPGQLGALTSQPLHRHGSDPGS
Sequence of Cytochrome P450 2C9 (P11712 whole entry): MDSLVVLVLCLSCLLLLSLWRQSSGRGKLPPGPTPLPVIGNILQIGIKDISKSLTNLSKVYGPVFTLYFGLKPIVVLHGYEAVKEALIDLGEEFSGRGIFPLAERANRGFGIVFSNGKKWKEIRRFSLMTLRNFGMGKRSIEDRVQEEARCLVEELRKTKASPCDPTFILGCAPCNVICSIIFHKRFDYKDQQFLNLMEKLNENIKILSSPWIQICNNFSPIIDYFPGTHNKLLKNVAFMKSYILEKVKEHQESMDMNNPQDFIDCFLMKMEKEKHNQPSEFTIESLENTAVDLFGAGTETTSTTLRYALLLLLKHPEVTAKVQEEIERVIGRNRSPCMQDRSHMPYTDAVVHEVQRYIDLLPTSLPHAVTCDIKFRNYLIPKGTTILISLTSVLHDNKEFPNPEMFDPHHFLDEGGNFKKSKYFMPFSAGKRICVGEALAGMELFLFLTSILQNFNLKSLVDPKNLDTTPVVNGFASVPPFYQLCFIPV
Sequence of CYP3A4 (P08684 whole entry): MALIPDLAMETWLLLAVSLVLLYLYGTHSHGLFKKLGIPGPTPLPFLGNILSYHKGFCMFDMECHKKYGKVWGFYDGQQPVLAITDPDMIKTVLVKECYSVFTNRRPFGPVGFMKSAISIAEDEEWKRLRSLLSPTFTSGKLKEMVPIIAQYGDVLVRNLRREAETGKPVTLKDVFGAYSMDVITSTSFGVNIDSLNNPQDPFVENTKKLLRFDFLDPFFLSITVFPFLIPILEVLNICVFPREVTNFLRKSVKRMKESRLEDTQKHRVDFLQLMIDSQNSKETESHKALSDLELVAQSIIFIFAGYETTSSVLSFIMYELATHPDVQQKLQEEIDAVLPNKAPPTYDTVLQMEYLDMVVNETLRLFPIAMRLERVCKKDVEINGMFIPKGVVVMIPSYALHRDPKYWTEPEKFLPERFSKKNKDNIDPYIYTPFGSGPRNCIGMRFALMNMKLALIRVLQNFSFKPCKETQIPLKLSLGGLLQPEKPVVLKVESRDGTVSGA

Nc1nc2cnc(C(=O)N3CCOC[C@@H]3c3ccc(C(F)(F)F)cc3)cc2c2c1COC2
Occ [1]: 70% | Activity [2]: Not_active | fraction unbound [3]: 0.07 | fraction unbound [4]: 0.1 | inhibition in vivo at 30 mg/kg [5]: 57% | Kp uu [6]: 0.2 | inhibition in vivo at 3 mg/kg [7]: 54% | IC50 [8]: 59 µM | IC50 [9]: > 30 µM | inhibition in vivo at 30 mg/kg [10]: 74% | microsomal CLint [11]: 14 µL/min/mg | Drug uptake [12]: Active | Activity [13]: Non-toxic | inhibition at 30 min, 10 µM [14]: < 20% | inhibition [15]: 83% | CL free [16]: 3 L/h/kg | CL free [17]: 17 L/h/kg
